Measured values taken from ChEMBL document CHEMBL1201862, “PubChem BioAssay data set” (2004).
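Step 1: Grow cells in 96-well plates. Step 2: Expose to compound for 48 hours at 5 concentrations. Step 3: Interpolate endpoints linearly; if unreached, use highest concentration. At the GI50, growth is halved.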 Activity calls are given as the source filed them. No stated cut-off is given here; in the data, active = GI50 up to about 1.1 µM and inactive = higher.

Experiments:
Test in all cases: NCI tumour cell line growth inhibition, 48 h
OVCAR-5 = system: OVCAR-5
ACHN = system: ACHN
HOP-92 = system: HOP-92
HCT-116 = system: HCT-116
A498 = system: A498
UACC-62 = system: UACC-62
MDA-MB-435 = system: MDA-MB-435
SK-MEL-28 = system: SK-MEL-28
HCC 2998 = system: HCC 2998
M14 = system: M14
KM12 = system: KM12
786-0 = system: 786-0
SK-OV-3 = system: SK-OV-3
TK-10 = system: TK-10
OVCAR-3 = system: OVCAR-3
MDA-N = system: MDA-N
NCI/ADR-RES = system: NCI/ADR-RES
HOP-62 = system: HOP-62
LOX IMVI = system: LOX IMVI
SF-295 = system: SF-295

SMILES | GI50 (OVCAR-5) | GI50 (ACHN) | GI50 (HOP-92) | GI50 (HCT-116) | GI50 (A498) | GI50 (UACC-62) | GI50 (MDA-MB-435) | GI50 (SK-MEL-28) | GI50 (HCC 2998) | GI50 (M14) | GI50 (KM12) | GI50 (786-0) | GI50 (SK-OV-3) | GI50 (TK-10) | GI50 (OVCAR-3) | GI50 (MDA-N) | GI50 (NCI/ADR-RES) | GI50 (HOP-62) | GI50 (LOX IMVI) | GI50 (SF-295)
FC(F)(F)c1cccc(-c2nc3nc(Cl)c(Cl)nc3[nH]2)c1 | 2.48 µM (inactive) | 2.63 µM (inactive) | 0.889 µM (active) | 2.09 µM (inactive) | 1.75 µM (inactive) | 0.562 µM (active) | 2.52 µM (inactive) | 3.13 µM (inactive) | 3.11 µM (inactive) | 3.42 µM (inactive) | 2.69 µM (inactive) | 3.77 µM (inactive) | 2.86 µM (inactive) | 4.95 µM (inactive) | 1.59 µM (inactive) | 2.18 µM (inactive) | 2.53 µM (inactive) | 3.22 µM (inactive) | 2.92 µM (inactive) | 2.05 µM (inactive)
N#C[C@H](C(=O)c1ccccc1F)c1nc2ccccc2[nH]1 | > 100 µM (inactive) | > 100 µM (inactive) | > 100 µM (inactive) | > 100 µM (inactive) | 87.9 µM (inactive) | > 100 µM (inactive) | > 100 µM (inactive) | > 100 µM (inactive) | > 100 µM (inactive) | > 100 µM (inactive) | 96.2 µM (inactive) | > 100 µM (inactive) | > 100 µM (inactive) | > 100 µM (inactive) | > 100 µM (inactive) | > 100 µM (inactive) | > 100 µM (inactive) | > 100 µM (inactive) | > 100 µM (inactive) | > 100 µM (inactive)
Cc1cn(C2CC(n3cc(Cn4cc(F)c(=O)[nH]c4=O)nn3)C(CO)O2)c(=O)[nH]c1=O (stereo not given) | > 100 µM (inactive) | > 100 µM (inactive) | > 100 µM (inactive) | > 100 µM (inactive) | > 100 µM (inactive) | > 100 µM (inactive) | > 100 µM (inactive) | > 100 µM (inactive) | > 100 µM (inactive) | > 100 µM (inactive) | > 100 µM (inactive) | > 100 µM (inactive) | > 100 µM (inactive) | > 100 µM (inactive) | > 100 µM (inactive) | > 100 µM (inactive) | > 100 µM (inactive) | > 100 µM (inactive) | > 100 µM (inactive) | > 100 µM (inactive)
CCC[C@@H](O)C[C@@H]1CCC[C@H](C[C@@H](O)CC)N1C | > 100 µM (inactive) | > 100 µM (inactive) | < 0.01 µM (active) | > 100 µM (inactive) | > 100 µM (inactive) | > 100 µM (inactive) | > 100 µM (inactive) | > 100 µM (inactive) | > 100 µM (inactive) | > 100 µM (inactive) | > 100 µM (inactive) | > 100 µM (inactive) | > 100 µM (inactive) | > 100 µM (inactive) | > 100 µM (inactive) | > 100 µM (inactive) | > 100 µM (inactive) | > 100 µM (inactive) | 88.1 µM (inactive) | > 100 µM (inactive)
O=C1C2=C(C(=O)c3c(O)ccc(O)c31)[C@@H](O)[C@@H](O)[C@@H](O)C2 | 7.96 µM (inactive) | 2.52 µM (inactive) | 1.34 µM (inactive) | 0.47 µM (active) | 7.05 µM (inactive) | 3.52 µM (inactive) | 1.57 µM (inactive) | 2.26 µM (inactive) | 7.33 µM (inactive) | 1.86 µM (inactive) | 4.46 µM (inactive) | 2.02 µM (inactive) | 18.2 µM (inactive) | 1.52 µM (inactive) | 0.504 µM (active) | 1.49 µM (inactive) | 2.66 µM (inactive) | 3.97 µM (inactive) | 2 µM (inactive) | 7.24 µM (inactive)
CS[C@]12[C@@H]3C(=O)N(C)C(=O)[C@@H]3[C@](C)(C(=O)N1C)C(=O)N2c1ccccc1 | > 100 µM (inactive) | > 100 µM (inactive) | > 100 µM (inactive) | > 100 µM (inactive) | > 100 µM (inactive) | > 100 µM (inactive) | > 100 µM (inactive) | > 100 µM (inactive) | > 100 µM (inactive) | > 100 µM (inactive) | > 100 µM (inactive) | > 100 µM (inactive) | > 100 µM (inactive) | > 100 µM (inactive) | > 100 µM (inactive) | > 100 µM (inactive) | > 100 µM (inactive) | > 100 µM (inactive) | > 100 µM (inactive) | > 100 µM (inactive)
CCOC(CCNCC(OCC)OCC)OCC | > 10 µM (inactive) | > 10 µM (inactive) | > 10 µM (inactive) | > 10 µM (inactive) | > 10 µM (inactive) | > 10 µM (inactive) | > 10 µM (inactive) | > 10 µM (inactive) | > 10 µM (inactive) | > 10 µM (inactive) | > 10 µM (inactive) | > 10 µM (inactive) | > 10 µM (inactive) | > 10 µM (inactive) | > 10 µM (inactive) | > 10 µM (inactive) | > 10 µM (inactive) | > 10 µM (inactive) | > 10 µM (inactive) | > 10 µM (inactive)
Cc1cc2c(cc1C)C(=O)c1ncccc1C2=O | 21.1 µM (inactive) | 37.2 µM (inactive) | 58.6 µM (inactive) | 19.9 µM (inactive) | 50.2 µM (inactive) | 30.3 µM (inactive) | 16.8 µM (inactive) | 50.5 µM (inactive) | 33.4 µM (inactive) | 23.6 µM (inactive) | 31.5 µM (inactive) | 28.5 µM (inactive) | 87.9 µM (inactive) | > 100 µM (inactive) | 3.06 µM (inactive) | 18.7 µM (inactive) | 22.8 µM (inactive) | 71.3 µM (inactive) | 29.4 µM (inactive) | 41.8 µM (inactive)
O=C1C[C@@]23CCC4(CC2=CCC[C@H]3O1)OCCO4 | > 100 µM (inactive) | > 100 µM (inactive) | > 100 µM (inactive) | > 100 µM (inactive) | > 100 µM (inactive) | > 100 µM (inactive) | > 100 µM (inactive) | > 100 µM (inactive) | > 100 µM (inactive) | > 100 µM (inactive) | > 100 µM (inactive) | > 100 µM (inactive) | > 100 µM (inactive) | > 100 µM (inactive) | > 100 µM (inactive) | > 100 µM (inactive) | > 100 µM (inactive) | > 100 µM (inactive) | > 100 µM (inactive) | > 100 µM (inactive)
CCOC(=O)C#Cc1ccccc1 | 5.08 µM (inactive) | 14.6 µM (inactive) | 18.3 µM (inactive) | 1.91 µM (inactive) | 21.3 µM (inactive) | 6.75 µM (inactive) | 7.18 µM (inactive) | 16.8 µM (inactive) | 12.2 µM (inactive) | 5.14 µM (inactive) | 12.2 µM (inactive) | 4.84 µM (inactive) | 26.6 µM (inactive) | 21.6 µM (inactive) | 19.1 µM (inactive) | 4.09 µM (inactive) | 4.82 µM (inactive) | 17.3 µM (inactive) | 2.96 µM (inactive) | 13.5 µM (inactive)
COC(=O)C(Cc1ccccc1)NP(=O)(O)OCC1OC(n2ccc(N)nc2=O)C(O)C1O (stereo not given) | > 100 µM (inactive) | > 100 µM (inactive) | > 100 µM (inactive) | > 100 µM (inactive) | > 100 µM (inactive) | > 100 µM (inactive) | > 100 µM (inactive) | > 100 µM (inactive) | > 100 µM (inactive) | > 100 µM (inactive) | > 100 µM (inactive) | > 100 µM (inactive) | > 100 µM (inactive) | 40.8 µM (inactive) | > 100 µM (inactive) | > 100 µM (inactive) | > 100 µM (inactive) | > 100 µM (inactive) | > 100 µM (inactive) | > 100 µM (inactive)
Nc1c2c(nc3ccccc13)-c1ccccc1CCC2 | 13 µM (inactive) | 13.7 µM (inactive) | 9.12 µM (inactive) | 7.16 µM (inactive) | 8.22 µM (inactive) | 10.7 µM (inactive) | 13.5 µM (inactive) | 12.7 µM (inactive) | 3.08 µM (inactive) | 13.1 µM (inactive) | 14.1 µM (inactive) | 14.1 µM (inactive) | 15.2 µM (inactive) | 10.7 µM (inactive) | 14.1 µM (inactive) | 13.2 µM (inactive) | 14.2 µM (inactive) | 10.2 µM (inactive) | 12.7 µM (inactive) | 5.98 µM (inactive)
